Experimental data as given in patent US11266649B2, “Pharmaceutical formulations” (Corvus Pharmaceuticals, Inc., priority 2018, dated 2022).

Experiments:
[1] = Storage stability: Total Impurities by stability-indicating HPLC; type: physicochemical; settings: API (Formula (III)) itself, reference
[2] = Particle size distribution by laser diffraction, before and after jet-mill micronization; type: physicochemical
Experimental: “Particle size distribution” or “PSD” or “size distribution” refers to the size of particles present in their relative proportions in a sample, as measured by laser diffraction spectroscopy. In aspects, the particle size distribution refers to the particle size distribution of all the drug particles in the composition. The particle size distribution of a sample is measured by laser diffraction spectroscopy. Laser diffraction spectrometers are commercially available as, e.g., MASTERSIZER® 3000 from Malvern Instruments Ltd, and HORIBA® LA-950 by Horiba Instruments, Inc., Irvine Calif. For laser diffraction spectroscopy, particle size distribution is generally described by D values, such as D90. In aspects, the laser diffraction spectroscopy can be analyzed by the Fraunhofer theory. In aspects, the laser diffraction spectroscopy can be analyzed by the Mie scattering theory. In aspects, the laser diffraction spectroscopy can be analyzed by a combination of the Fraunhofer theory and the Mie scattering theory.
Formulation (III) was micronized using a Sturtevant SDM jet mill with a 2 inch diameter loop. The process parameters were: inlet air pressure 120 psi; grind chamber 100 psi; nozzle air pressure 80 psi; manual fee rate.
Formulation (III) was micronized using a Sturtevant SDM jet mill with a 4 inch diameter loop. The process parameters were: inlet air pressure 120 psi; grind chamber 100 psi; nozzle air pressure 80 psi; manual fee rate.

[3] = 1 pass micronization, jet mill 2 inch diameter loop
[4] = 1 pass micronization, jet mill 4 inch diameter loop
[5] = 2 pass micronization, jet mill 4 inch diameter loop
[6] = Before micronization, Table 1A, jet mill 2 inch diameter loop
[7] = Before micronization, Table 1B, jet mill 4 inch diameter loop

Total Impurities [1]: 0.80%
Total Impurities ([1]; listed as API): 0.80%
D10 [2, 3]: 0.9 microns
D50 [2, 3]: 3.3 microns
D90 [2, 3]: 8.2 microns
D10 [2, 4]: 1.1 microns
D50 [2, 4]: 4.3 microns
D90 [2, 4]: 20.2 microns
D10 [2, 5]: 0.9 microns
D50 [2, 5]: 3.1 microns
D90 [2, 5]: 8.3 microns
D10 [2, 6]: 2.3 microns
D50 [2, 6]: 8.6 microns
D90 [2, 6]: 31.1 microns
D10 [2, 7]: 2.3 microns
D50 [2, 7]: 8.6 microns
D90 [2, 7]: 31.1 microns
SMILES: Cc1ccc(-c2nc(N)nc3c2nnn3Cc2cccc(COC3CCOC3)n2)o1 (centres unmarked) [Formula (III)]
